Test [1] deals with NGF-induced vascular hyper permeability. Description: Inhibition of rat NGF-induced vascular hyper permeability. The note with it: po, 1 mg/kg orally, 14 h after administration, read-out: Inhibition rate of vascular hyper permeability (%) (time after administration (h)). The test is classed as in vivo. The protocol:
TrkA-inhibiting activity of the present compound was evaluted in vivo. The present compound dissolved in a medium was orally administered (adminstered volume: 5 mL/kg) to male CD(SD)IGS rats (7- to 9-week old, Charles River laboratories Japan, Inc.) shaved on the back. A medium was orally administered (adminstered volume: 5 mL/kg) to the control and normal groups. After 6, 12 or 14 hours of administration, 3 μg/mL of a NGF (Mouse 2.5s, Natural, Invitrogen) solution prepared in 0.1% BSA (Sigma-Aldrich)-containing saline was intracutaneously administered (dose; 50 μL/site) at 3 sites on the back of animals under halothane anesthesia. For the normal group, 0.1% BSA-containing saline was intracutaneously administered (dose; […]) at 3 sites on the back. Immediately after intracutaneous administration, 1% Evans Blue (Tokyo Chemical Industriy Co., Ltd.) was administered intravenously from tail (adminstered volume: 3 mL/kg). After 10 minutes of administration, the animals were sacrificed by bleeding due to incision of the abdominal aorta. The sites of intracutaneous administration on the back (3 sites) were excised and the skin samples were respectively transferred to the wells in a 48-well plate (Asahi Glass Co., Ltd.). Formamide (0.8 mL/well) was added to the plate and the plate was sealed and incubated overnight at 60° C. The formamide extraction solution (200 μL) was transferred to a 96-well plate and the absorbance (wavelength: 620 nm) of Evans Blue extracted in formamide was measured on an absorbance microplate reader (SpectraMAX 190, Molecular Devices Japan, K.K.). Standard samples of Evans Blue dissolved in formamide (0, 0.78, 1.56, 3.13, 6.25, 12.5, 25 and 50 µg/mL) were measured at the same time for the absorance (wavelength: 620 nm) to generate a calibration curve. Based on the calibration curve and the absorbances of samples, the concentrations of Evans Blue in the sample was calculated. The concentrations of Evans Blue for three skin samples collected from one aminal were averaged to obtain the vale for the animal. The rate of inhibition for rat NGF-induced vascular hyper permeability of the present compound was calculated according to the following Equation: Inhibition rate (%)={1−(AX−AN)/(AC−AN)}×100 [Eq. 3]
wherein AX: the concentration of Evans Blue of the test compound (an average value of 3 samples from one animal);
AN: the concentration of Evans Blue of the normal group (an average value of 3 samples from one animal);
AC: the concentration of Evans Blue of the control group (an average value of 3 samples from one animal).

The target of another test is human TrkA (Homo sapiens (Human), UniProt P04629). Description: Measurement of TrkA kinase-inhibiting activity using human TrkA-expressing cells. The note with it: CHO-K1 cells expressing human TrkA and NFAT-bla; NGF 50 ng/ml; TR-FRET reporter. The test is classed as cell-based. The protocol:
TrkA kinase-inhibiting activity in cell systems was measured using CHO-K1 cells exressing human TrkA and NFAT-bla (CellSenser™ TrkA-NFAT-bla CHO-K1 cells, Invitrogen).
On the day before the assay, CellSenser™ TrkA-NFAT-bla CHO-K1 cells were suspended in an assay medium (Opti-MEM1 Reduced Serum Medium (Invitrogen) containing 0.5% dialysed fetal bovine serum (Invitrogen), 0.1 mM nonessential amino acids (Invitrogen), 1 mM sodium pyruvate (Invitrogen) and antibiotics (100 U/mL penicillin and 100 µg/mL streptomycin (Invitrogen))) and plated at a density of 2.4×10^4 cells/40 μL/well in a 96-well clear bottom plate (Corning, Catalogue No.: 3882). In some wells were added only the assay medium at 40 μL/well (Cell-free). On the day of the assay, 10 mM of the present compound (DMSO solution) was distributed in a 96-well plate (Costar, Catalogue No.: 3363) and serially diluted with DMSO with the geometrical ratio of 3. The serial dilutions were diluted with the assay medium to 100-fold to prepare a solution of the present compound with a 10-fold concentration (DMSO concentration: 1%). To the plate where cells were plated was added the present compound at 5 µL/well and the plate was incubated in a CO2 incubator with 5% CO2, 95% Air at 37° C. for 30 minutes. For a control and a blank, the assay medium containing 1% DMSO was added at 5 µL/well in place of the solution of the present compound. Subsequently the assay medium containing NGF (Mouse 2.5s, Natural, Invitrogen) was added to the plate at 5 µL/well (final concentration of NGF: 50 ng/ml) and the plate was incubated in a CO2 incubator with 5% CO2, 95% Air at 37° C. for 5 hours. For the blank group, the assay medium was added in place of NGF at 5 µL/well. A reporter assay detection reagent ([…]) was added to the plate which was then incubated in the dark at room temperature for 120 minutes. The reporter assay detection reagent was prepared from LiveBLAzer™-FRET B/G Loading Kit (Invitrogen). On the Analyst GT (Molecular Devices Japan, K.K.) the wells were irradiated with excitation light at 405 nm and the fluorescence intensities at 460 nm and 530 nm were measured. The time resolved fluorescence resonance energy transfer (TR-FRET) ratio of each well was calculated according to the following Equation 1: TR-FRET ratio=(A460x−A460F)/(A530x−A530F) [Eq. 1]
A460x: the fluorescence intensity at 460 nm of the present compound, control or blank;
A460F: the fluorescence intensity at 460 nm of the Cell-free;
A530x: the fluorescence intensity at 530 nm of the present compound, control or blank; and
A530x: the fluorescence intensity at 530 nm of the Cell-free.
The TR-FRET inhibition rate (%) of the present compound was calculated according to the following Equation 2: Inhibition rate (%)={1−(AX−AB)/(AC−AB)}×100 [Eq. 2]
wherein AX: the TR-FRET ratio when the present compound is added;
AB: the TR-FRET of the blank; and
AC: the TR-FRET of the control.
The IC50 value by the present compound was calculated from the inhibition curve based on the inhibition rate of the present compound at respective concentrations.
For orientation: In TR-FRET formats the signal depends on donor and acceptor labels being close together.

Sequence of human TrkA (P04629 33-796): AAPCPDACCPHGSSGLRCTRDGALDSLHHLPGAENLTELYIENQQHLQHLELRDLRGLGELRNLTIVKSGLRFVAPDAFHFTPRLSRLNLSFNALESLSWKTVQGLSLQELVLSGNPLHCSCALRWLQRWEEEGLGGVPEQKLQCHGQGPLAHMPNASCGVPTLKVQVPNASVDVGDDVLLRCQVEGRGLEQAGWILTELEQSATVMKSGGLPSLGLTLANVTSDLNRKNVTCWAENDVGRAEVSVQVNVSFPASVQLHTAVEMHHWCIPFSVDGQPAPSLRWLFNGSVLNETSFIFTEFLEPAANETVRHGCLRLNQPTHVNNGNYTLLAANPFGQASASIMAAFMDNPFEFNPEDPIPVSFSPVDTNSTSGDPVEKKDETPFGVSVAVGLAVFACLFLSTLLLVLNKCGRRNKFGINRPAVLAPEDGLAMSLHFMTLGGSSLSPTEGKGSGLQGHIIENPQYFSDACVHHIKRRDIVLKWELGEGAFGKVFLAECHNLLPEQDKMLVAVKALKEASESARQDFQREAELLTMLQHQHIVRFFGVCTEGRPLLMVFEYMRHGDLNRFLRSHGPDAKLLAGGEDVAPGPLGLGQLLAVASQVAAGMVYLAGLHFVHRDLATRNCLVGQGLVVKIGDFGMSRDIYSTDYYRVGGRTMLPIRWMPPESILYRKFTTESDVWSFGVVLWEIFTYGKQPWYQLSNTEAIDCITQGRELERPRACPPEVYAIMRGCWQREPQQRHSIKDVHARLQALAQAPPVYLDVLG

Take `Nc1ncc(Cl)cc1-c1ccc(Oc2ncc(NC(=O)Nc3cc(C(F)(F)F)ccc3-n3cccn3)cn2)cc1` [Example 7, 1-(2-(1H-pyrazol-1-yl)-5-(trifluoromethyl)phenyl)-3-(2-(4-(2-amino-5-chloropyridin-3-yl)phenoxy)pyrimidin-5-yl)urea]: the inhibition in vivo at 1 mg/kg in test [1] amounted to 97%. Inhibition against human TrkA was half-maximal at 0.001 µM (IC50).

Regarding `Cc1cn(-c2ccc(C(F)(F)F)cc2NC(=O)Nc2cnc(Oc3ccc(-c4cc(Cl)cnc4N)cc3)nc2)nn1` [Example 8-1, 1-(2-(4-(2-amino-5-chloropyridin-3-yl)phenoxy)pyrimidin-5-yl)-3-(2-(4-methyl-1H-1,2,3-triazol-1-yl)-5-(trifluoromethyl)phenyl)urea], the inhibition in vivo at 1 mg/kg in test [1] was 94%. Further, the IC50 – broadly, the point on the concentration scale where inhibition reaches its midpoint – against human TrkA came out at 0.001 µM.

For `Nc1ncc(Cl)cc1-c1ccc(Oc2ncc(NC(=O)Nc3cc(C(F)(F)F)ccc3-n3ccc(C(F)(F)F)n3)cn2)cc1` [Example 8-2, 1-(2-(4-(2-amino-5-chloropyridin-3-yl)phenoxy)pyrimidin-5-yl)-3-(5-(trifluoromethyl)-2-(3-(trifluoromethyl)-1H-pyrazol-1-yl)phenyl)urea], the inhibition in vivo at 1 mg/kg in test [1] worked out at 100%. Also, 0.002 µM corresponded to half-maximal inhibition against human TrkA (IC50). On the same counts, the results for `Nc1ncc(Cl)cc1-c1ccc(Oc2ncc(NC(=O)Nc3cc(C(F)(F)F)ccc3Cl)cn2)cc1` [Example 8-4, 1-(2-(4-(2-amino-5-chloropyridin-3-yl)phenoxy)pyrimidin-5-yl)-3-(2-chloro-5-(trifluoromethyl)phenyl)urea] are 96% and 0.001 µM. For `Nc1ncc(Cl)cc1-c1ccc(Oc2ccc(NC(=O)Nc3cc(C(F)(F)F)ccc3-n3cccn3)cn2)cc1` [Example 9-1], the inhibition in vivo at 1 mg/kg in test [1] turned out to be 86%. The molecule further had an IC50 on human TrkA of 0.003 µM. In the case of `Nc1ncc(Cl)cc1-c1ccc(Oc2ccc(NC(=O)Nc3cc(C(F)(F)F)ccc3-n3ccnn3)cn2)cc1` [Example 9-2], the inhibition in vivo at 1 mg/kg in test [1] is 100%. The molecule also returned an IC50 against human TrkA of 0.001 µM.

For `Nc1ncc(Cl)cc1-c1ccc(Oc2ccc(NC(=O)Nc3cc(C(F)(F)F)ccc3-c3cccnc3)cn2)cc1` [Example 11, 1-(6-(4-(2-amino-5-chloropyridin-3-yl)phenoxy)pyridin-3-yl)-3-(2-(pyridin-3-yl)-5-(trifluoromethyl)phenyl)urea], in test [1], the inhibition in vivo at 1 mg/kg amounted to 100%. In addition, at human TrkA, the midpoint of inhibition, the IC50, lay at 0.001 µM. Turning to `O=C(Nc1cnc(Oc2ccc(-c3cnc4ccccn34)cc2)nc1)Nc1cc(C(F)(F)F)ccc1-n1cccn1` [Example 23-3, 1-(2-(1H-pyrazol-1-yl)-5-(trifluoromethyl)phenyl)-3-(2-(4-(imidazo[1,2-a]pyridin-3-yl)phenoxy)pyrimidin-5-yl)urea], at human TrkA, the IC50 worked out at 0.001 µM. This counts as single-digit nanomolar. The molecule `O=C(Nc1cnc(Oc2ccc(-c3cnc4[nH]ccc4c3)cc2)nc1)Nc1cc(C(F)(F)F)ccc1-c1cccnc1` [Example 23-7, 1-(2-(4-(1H-pyrrolo[2,3-b]pyridin-5-yl)phenoxy)pyrimidin-5-yl)-3-(2-(pyridin-3-yl)-5-(trifluoromethyl)phenyl)urea] displayed an IC50 against human TrkA of 0.002 µM.

Regarding `O=C(Nc1cnc(Oc2ccc(-c3cnc4cnccn34)cc2)nc1)Nc1cc(C(F)(F)F)ccc1-c1cccnc1` [Example 23-10, 1-(2-(4-(imidazo[1,2-a]pyrazin-3-yl)phenoxy)pyrimidin-5-yl)-3-(2-(pyridin-3-yl)-5-(trifluoromethyl)phenyl)urea], half-maximal inhibition against human TrkA (IC50) required 0.001 µM.

`O=C(Nc1cnc(Oc2ccc(-c3cnn4ccccc34)cc2)nc1)Nc1cc(C(F)(F)F)ccc1-c1cccnc1` [Example 23-11, 1-(2-(4-(pyrazolo[1,5-a]pyridin-3-yl)phenoxy)pyrimidin-5-yl)-3-(2-(pyridin-3-yl)-5-(trifluoromethyl)phenyl)urea] gave an IC50 against human TrkA of 0.001 µM. For `O=C(Nc1cnc(Oc2ccc(-c3cnc4[nH]ncc4c3)cc2)nc1)Nc1cc(C(F)(F)F)ccc1-c1cccnc1` [Example 23-12, 1-(2-(4-(1H-pyrazolo[3,4-b]pyridin-5-yl)phenoxy)pyrimidin-5-yl)-3-(2-(pyridin-3-yl)-5-(trifluoromethyl)phenyl)urea], half-maximal inhibition against human TrkA (IC50) was put at 0.001 µM.

(Values after patent publication US9463192B2, “Trk-inhibiting compound” (ONO PHARMACEUTICAL CO., LTD., priority 2013, dated 2016).)
